According to article PMC12266748, “A Xanthine Derivative With Novel Heat Shock Protein 90‐Alpha Inhibitory and Senolytic Properties” (Aging Cell, 2025):
Like-named read-outs stand apart in the source and are kept apart here.

Columns and labels:
Drosophila melanogaster = Drosophila melanogaster lifespan assay; type: in vivo
Description: Experiments were carried out with wild‐type Canton‐S Drosophila melanogaster, originating (Stock #64349) from the Bloomington Drosophila Stock Centre (Indiana University). Flies were reared on Nutri‐Fly Bloomington Formulation food medium (Genesee Scientific). Vials containing only fresh food were alternated with vials containing food supplemented with K5. The number of living flies was counted every 2–3 days. Detailed protocols are reported in the extended section.
Drosophila melanogaster maintenance and lifespan assays. All experiments were carried out with wild-type Canton-S Drosophila melanogaster. Canton-S flies originated (Stock #64349) from the Bloomington Drosophila Stock Centre (Indiana University, Bloomington, IN, USA). Flies were reared on Nutri-Fly Bloomington Formulation food medium (Genesee Scientific, El Cajon, CA, USA) prepared using 176 g of Nutri-Fly per liter of distilled H2O. After cooling to 70°C, 4.8 mL of propionic acid (Merck KGaA, Darmstadt, Germany) per liter of food was added. Flies were maintained at constant temperature (25.0 ± 0.2°C) with 60% relative humidity on a 12 h:12 h 300 lux light-dark cycle generated by a 4000°K LED lamp (Fridge 1.5W, Ecoman Italia S.r.l., Frascati, Italy).
For lifespan assays, newly enclosed Drosophila melanogaster (1 to 2 days old) were collected and placed separately in vials (each containing 10 male and 10 female flies). Two experiments were performed. In the first experiment, 300 flies were randomly divided into three groups (CTRL, K5 10 µg/mL, and K5 100 µg/mL). Vials containing only fresh food (Nutri-Fly Bloomington Formulation food medium) were alternated 3 times a week with vials containing food supplemented with K5. The K5 was dissolved in DMSO and then diluted 1:10 in corn oil. 5 µL of corn oil (containing 0, 10 µg, or 100 µg of K5) was added to each mL of freshly prepared Nutri-Fly Bloomington Formulation food medium. In the second experiment, 900 flies were divided by sex into CTRL group and K5 10 µg/mL treated group. […] All experiments counted the number of living flies every 2–3 days.

HUVEC = experiment: MTT viability of Doxorubicin-induced senescent and non-senescent HUVEC; type: cell-based, Human; settings: for EC50: Homo sapiens
Excerpt: IMR90 and WI38 lung fibroblasts were purchased from ECACC‐Merck. Human bone marrow (BM)‐derived mesenchymal stromal cells (MSCs) were purchased from Lonza. Human umbilical vein endothelial cells (HUVECs) are primary cells obtained from a pool of donors purchased from Clonetics (Lonza). Murine ear fibroblasts (MearFs) were obtained from C57BL/6J mice maintained in the INRCA “Specific Pathogen Free” (SPF) animal facility. MCF7 breast cancer cells were purchased from ATCC. For dose–response curves, IMR90 and WI38 were induced to senescence through replicative passages; MSCs, HUVECs, and MearFs senescence was induced with Doxorubicin; MCF7 senescence was induced with 4‐Hydroxytamoxifen (Lee et al. [2014]). The EC50 was calculated using GraphPad Prism 10 software. All treatment specifications are reported in the extended section.
Cell viability was determined using an MTT assay. Absorbance was measured using a NB‐12‐0035 Microplate Reader (NeoBiotech Co.). Data are expressed as a percentage of viability compared with untreated cells.
Human umbilical vein endothelial cells (HUVECs) are primary cells obtained from a pool of donors purchased from Clonetics (Lonza, Stein, Switzerland). HUVECs were cultured in endothelial basal medium (EBM-2, CC-3156, Lonza) supplemented with SingleQuot Bullet Kit (CC-4176, Lonza) containing 0.1% human recombinant epidermal growth factor (rh-EGF), 0.04% hydrocortisone, 0.1% vascular endothelial growth factor (VEGF), 0.4% human recombinant fibroblast growth factor (rh-FGF-B), 0.1% insulin-like growth factor-1 with the substitution of arginine for glutamic acid at position 3 (R3-IGF-1), 0.1% ascorbic acid, 0.1% heparin, 0.1% gentamicin and amphotericin-B (GA-1000), and 2% fetal bovine serum (FBS). The cells were seeded at a density of 5000/cm^2 in T75 flasks (Corning Costar, Sigma Aldrich, St. Louis, MO, USA).
Murine ear fibroblasts (MearFs) were obtained from C57BL/6J mice maintained in the INRCA "Specific Pathogen Free" (SPF) animal facility. The ear biopsies (2 mm radius) were obtained with a dedicated puncher, and cells recovered as previously described (Malavolta et al. 2022). Cells were seeded at a density of 5000/cm^2 in T75 flasks (Corning Costar, Sigma Aldrich, St. Louis, MO, USA) and maintained at 37°C in a 95% humidified incubator with 5% CO2. […]
Cell viability assay. Cell viability has been determined with MTT (3-(4,5-dimethylthiazol-2-yl)-2, 5-diphenyltetrazolium bromide) assay. […] Insoluble formazan salts produced were solubilized with DMSO incubation, and then absorbance was measured at 540 nm using a microplate reader (NB-12-0035 Microplate Reader, NeoBiotech Co., Seoul, Republic of Korea). Data are expressed as a percentage of viability compared with untreated cells (the control group has been considered 100% of viability).

Cc1ccccc1-n1c(=O)n(Cc2ccccc2)c(=O)c2[nH]cnc21 [Compound K5, 1-benzyl-3-(2-methylphenyl)-7H-purine-2,6-dione]
effect on lifespan, preliminary treatment (Drosophila melanogaster; K5 10 μg/mL and 100 μg/mL, 100 flies per group, p = 0.034): significant overall difference in lifespan
increase of average lifespan compared to controls (Drosophila melanogaster; K5 10 μg/mL in food from day 20, n = 884): 6.63%
average lifespan of treated flies (Drosophila melanogaster; K5 10 μg/mL in food from day 20, n = 884, controls 47.54 days ± 0.74 SE): 50.69 days
Senolytic evidence (no, partly/yes) (HUVEC; DNA damage (Doxorubicin)): No
EC50 (HUVEC; DNA damage (Doxorubicin), MTT, read-out: EC50 senescent cells): > 500 µM
EC50 (HUVEC; MTT, read-out: EC50 proliferating cells): > 500 µM
difference in vitality, DOXO-induced senescent vs non-senescent proliferating cells (HUVEC; MTT): no discernible difference
